These results are taken from PubChem BioAssay (NCI).

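Five concentrations, 48 hours, 96-well plates. TGI is the concentration that stops growth completely.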 Where a SMILES comes first, the peptide text is derived from it. The star is where a group is joined. Boc = CC(C)(C)OC(=O)*

Among the test systems are K-562 leukemia; PC-3 prostate; MDA-MB-231 breast; HCT-15 colon; A549 NSCLC; IGROV1 ovarian; HOP-62 NSCLC; HL-60(TB) leukemia; HCT-116 colon; TK-10 renal; BT-549 breast; CAKI-1 renal; CCRF-CEM leukemia; MDA-N; SF-539 CNS; SK-MEL-5 melanoma; SK-MEL-2 melanoma; UACC-62 melanoma; HOP-92 NSCLC.
Assay in all cases: inhibition of tumour cell growth, NCI panel, 48 h

Take `CC(=O)OC12c3ccccc3C(c3ccccc31)C1C(=O)N(Nc3ccccc3)C(=O)C12` (stereo not given): the TGI in the test with K-562 leukemia, with PC-3 prostate, in the test on MDA-MB-231 breast, in the test on HCT-15 colon, in the test with A549 NSCLC and in the test on IGROV1 ovarian was above 100 µM each time. For the same compound, the TGI in the test with HOP-62 NSCLC, in the test with HL-60(TB) leukemia, with HCT-116 colon, in the test with TK-10 renal, with BT-549 breast and with CAKI-1 renal was above 100 µM each time. Besides, the TGI in the test with CCRF-CEM leukemia, in the test with MDA-N, with SF-539 CNS and with SK-MEL-5 melanoma was above 100 µM in each case.
In the case of `COc1cc(Br)cc2c1O[C@H]1C(=O)CC3CC21CCN3C` (stereo not given in full), the TGI was 46.3 µM with K-562 leukemia; above 100 µM with PC-3 prostate; above 100 µM in the test on HCT-15 colon; above 100 µM in the test on A549 NSCLC; above 100 µM in the test with IGROV1 ovarian; above 100 µM in the test with HOP-62 NSCLC. In addition, the TGI was 42.7 µM in the test with HL-60(TB) leukemia; above 100 µM in the test on HCT-116 colon; above 100 µM in the test with BT-549 breast; above 100 µM with CAKI-1 renal; 43.9 µM in the test on CCRF-CEM leukemia; above 100 µM in the test with MDA-N. Moreover, the TGI in the test with SK-MEL-2 melanoma, with SF-539 CNS, with SK-MEL-5 melanoma and with UACC-62 melanoma was above 100 µM each time.
Consider `CNC(=O)CNC(=O)C(NC(=O)CNC(=O)C1CCCN1C(=O)C(C)NC(=O)C(NC(=O)OC(C)(C)C)C(C)C)C(C)C` (stereo not given) (Boc-VAPGVG-NHMe; configuration not given here), for which the TGI with K-562 leukemia, with PC-3 prostate, in the test with MDA-MB-231 breast, in the test with HCT-15 colon, with IGROV1 ovarian and with HOP-62 NSCLC was above 100 µM throughout. The TGI with HL-60(TB) leukemia, in the test on HOP-92 NSCLC, in the test on HCT-116 colon, in the test with TK-10 renal, in the test on CAKI-1 renal and in the test with CCRF-CEM leukemia was above 100 µM in each case. The TGI in the test on MDA-N, in the test with SK-MEL-2 melanoma, in the test with SF-539 CNS and in the test on UACC-62 melanoma was above 100 µM each time.
Take `CCN1CCC(O)(/C=C/c2cccc(C)c2)C(C(=O)/C=C/c2cccc(C)c2)C1` (stereo not given): the TGI with K-562 leukemia was above 29.8 µM; with PC-3 prostate it was above 25.4 µM; in the test with MDA-MB-231 breast, 11.5 µM; in the test with HCT-15 colon, 6.29 µM; in the test with A549 NSCLC, 5.97 µM; in the test on IGROV1 ovarian it was 4.12 µM. Besides, the TGI in the test on HL-60(TB) leukemia was above 100 µM; in the test on HOP-92 NSCLC it was 7.56 µM; in the test with HCT-116 colon it was 6.13 µM; in the test with TK-10 renal, 3.92 µM; in the test with CAKI-1 renal it was 4.31 µM; in the test on MDA-N, 8.67 µM. The TGI worked out at 5.56 µM with SK-MEL-2 melanoma, 5.4 µM with SF-539 CNS, 3.99 µM in the test on SK-MEL-5 melanoma and 3.54 µM in the test on UACC-62 melanoma.
In the case of `COc1ccc(-c2c(C(C)=O)c(C)n(C3OC(COC(C)=O)C(OC(C)=O)C(OC(C)=O)C3OC(C)=O)c(=S)c2C#N)cc1` (stereo not given), the TGI with K-562 leukemia, in the test on PC-3 prostate, in the test with MDA-MB-231 breast, in the test on HCT-15 colon, in the test on A549 NSCLC and with IGROV1 ovarian was above 100 µM each time. For the same compound, the TGI with HOP-62 NSCLC is above 100 µM; with HL-60(TB) leukemia it was above 100 µM; in the test on HOP-92 NSCLC, 84.6 µM; in the test with HCT-116 colon, above 100 µM; in the test with TK-10 renal, above 100 µM; in the test on CAKI-1 renal, above 100 µM. In addition, the TGI in the test on CCRF-CEM leukemia, in the test with MDA-N, in the test on SK-MEL-2 melanoma, in the test with SF-539 CNS, in the test with SK-MEL-5 melanoma and with UACC-62 melanoma was above 100 µM in each case.
As to `COc1cc(C2SC(N)=Nc3c2c(C)nn3C(=O)Cc2ccccc2)cc(OC)c1OC` (stereo not given), the TGI with K-562 leukemia, with PC-3 prostate, with MDA-MB-231 breast, with HCT-15 colon, in the test on A549 NSCLC and with IGROV1 ovarian was above 100 µM in each case. Besides, the TGI in the test with HOP-62 NSCLC, in the test on HL-60(TB) leukemia, in the test on HCT-116 colon, in the test on TK-10 renal, in the test on BT-549 breast and with CAKI-1 renal was above 100 µM in each case. The TGI with CCRF-CEM leukemia, in the test on MDA-N, in the test on SF-539 CNS, in the test on SK-MEL-5 melanoma and in the test with UACC-62 melanoma was above 100 µM each time.
For the compound `CC(C)C1=CC23CCC4C(C)(C(=O)O)CCCC4(C)C2CC1C1C(=O)N(c2ccc(N4C(=O)C5C6CC7C8(C)CCCC(C)(C(=O)O)C8CCC7(C=C6C(C)C)C5C4=O)cc2)C(=O)C13` (stereo not given), the TGI in the test with K-562 leukemia was above 100 µM; with PC-3 prostate, 14.1 µM; in the test with MDA-MB-231 breast, 21.5 µM; in the test on HCT-15 colon, 27.2 µM; in the test on A549 NSCLC it was 43.3 µM; in the test on HOP-62 NSCLC, 19.3 µM. The TGI with HL-60(TB) leukemia worked out at 17.2 µM; in the test with HOP-92 NSCLC, 28.5 µM; in the test on HCT-116 colon, 11.8 µM; in the test with TK-10 renal it was 29.9 µM; in the test with CCRF-CEM leukemia, 19.4 µM; in the test with MDA-N, 16.1 µM. Further, the TGI in the test on SK-MEL-2 melanoma came out at 26.7 µM; in the test on SF-539 CNS it was 22.4 µM; in the test with SK-MEL-5 melanoma it was 19.2 µM.
As to `CN1CCN(Cn2nc(-c3ccccc3)n(/N=C/c3ccc(-c4ccc(Cl)cc4Cl)o3)c2=S)CC1`, the TGI was determined as 24.7 µM with K-562 leukemia; 22 µM in the test with PC-3 prostate; 29.9 µM with MDA-MB-231 breast; 21.2 µM with HCT-15 colon; 31.8 µM in the test on IGROV1 ovarian; 30.5 µM with HOP-62 NSCLC. Further, the TGI in the test on HL-60(TB) leukemia was determined as 80.3 µM; with HOP-92 NSCLC it was 25.1 µM; in the test on HCT-116 colon it was 14.8 µM; in the test with TK-10 renal, 29.7 µM; with CAKI-1 renal, 21.9 µM; with CCRF-CEM leukemia, 23.2 µM. For the same compound, the TGI in the test with MDA-N was above 100 µM; with SK-MEL-2 melanoma, 44.1 µM; in the test with SF-539 CNS, 41 µM; in the test with SK-MEL-5 melanoma, 68.9 µM.
